US10392368B2, “Pyrazolo and triazolo bicyclic compounds as JAK kinase inhibitors” (THERAVANCE BIOPHARMA R&D IP, LLC, priority 2017, dated 2019)

Assays:
JAK1 = target: T1, JAK1 (Homo sapiens, UniProt P23458); assay: Biochemical JAK1 kinase assay (LanthaScreen); conditions: for Ki: read-out: JAK 1 (pKi) (converted)
T1 construct: GST; purchased Life Technologies
Procedure, shortened: (§1)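 Compounds were preincubated with the GST-tagged kinase and GFP-labelled STAT1 peptide for one hour before ATP initiated a one-hour reaction at ambient temperature. Phosphorylation was quantified by TR-FRET with a Tb-labelled pTyr701 antibody. Ki values were derived from IC50 using Cheng-Prusoff.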

[1] = tested on: IL-2 stimulated pSTAT5 in Tall-1 T cells; assay: Cellular JAK3 potency assay: inhibition of IL-2 stimulated pSTAT5 in Tall-1 T cells; format: cell-based, human; conditions: for Tall-1 (pIC50): IL-2 stimulated pSTAT5, Tall-1 T cells; for IC50: Homo sapiens, TALL-1, IL-2 stimulated pSTAT5, Tall-1 T cells, read-out: Tall-1 (pIC50) (converted)
Procedure, shortened: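 Tall-1 human T cells were preincubated with compound for 1 h at 37° C, then stimulated with IL-2 (300 ng/ml final) for 30 min. STAT5 phosphorylation in lysates was read by AlphaLisa bead emission, and IC50 from inhibition curves is given as pIC50 (mean±SD).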

JAK3 = target: T2, JAK3 (Homo sapiens, UniProt P52333); assay: Biochemical JAK3 kinase assay (LanthaScreen); parameters: GST; purchased Life Technologies; conditions: for JAK3 (pKi)-JAK1 (pKi): selectivity JAK3 over JAK1, difference of pKi; for Ki: read-out: JAK 3 (pKi) (converted)
T2 sequence (P52333 1-1124): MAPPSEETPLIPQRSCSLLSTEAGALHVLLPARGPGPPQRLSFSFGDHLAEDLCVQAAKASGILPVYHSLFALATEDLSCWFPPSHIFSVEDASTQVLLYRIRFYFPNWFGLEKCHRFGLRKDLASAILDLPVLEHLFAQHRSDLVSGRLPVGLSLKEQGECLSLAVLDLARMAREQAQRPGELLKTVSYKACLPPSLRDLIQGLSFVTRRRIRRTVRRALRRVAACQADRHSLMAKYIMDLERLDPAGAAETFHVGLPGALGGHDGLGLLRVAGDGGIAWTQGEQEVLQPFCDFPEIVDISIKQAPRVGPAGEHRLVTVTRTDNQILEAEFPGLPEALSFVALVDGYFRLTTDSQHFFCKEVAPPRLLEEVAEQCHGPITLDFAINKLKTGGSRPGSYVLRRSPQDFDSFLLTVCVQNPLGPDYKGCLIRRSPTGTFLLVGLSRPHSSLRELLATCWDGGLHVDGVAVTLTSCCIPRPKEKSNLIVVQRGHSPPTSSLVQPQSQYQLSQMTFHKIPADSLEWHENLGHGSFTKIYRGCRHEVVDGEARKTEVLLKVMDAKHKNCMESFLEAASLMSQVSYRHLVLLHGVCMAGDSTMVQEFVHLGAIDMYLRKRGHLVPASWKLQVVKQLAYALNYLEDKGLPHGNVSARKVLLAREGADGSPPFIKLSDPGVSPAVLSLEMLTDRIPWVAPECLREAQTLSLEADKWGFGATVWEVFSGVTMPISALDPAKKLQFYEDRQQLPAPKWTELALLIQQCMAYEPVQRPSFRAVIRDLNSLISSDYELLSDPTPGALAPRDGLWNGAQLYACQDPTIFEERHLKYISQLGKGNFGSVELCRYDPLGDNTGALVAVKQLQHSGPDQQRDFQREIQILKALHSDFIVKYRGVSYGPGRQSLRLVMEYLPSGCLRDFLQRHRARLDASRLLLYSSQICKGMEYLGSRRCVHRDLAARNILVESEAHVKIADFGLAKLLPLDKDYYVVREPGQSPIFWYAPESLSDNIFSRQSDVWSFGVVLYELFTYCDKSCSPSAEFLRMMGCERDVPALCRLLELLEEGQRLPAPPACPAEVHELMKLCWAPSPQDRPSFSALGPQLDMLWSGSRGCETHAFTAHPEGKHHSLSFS
Procedure, shortened: as §1

T1 sequence (P23458 whole entry): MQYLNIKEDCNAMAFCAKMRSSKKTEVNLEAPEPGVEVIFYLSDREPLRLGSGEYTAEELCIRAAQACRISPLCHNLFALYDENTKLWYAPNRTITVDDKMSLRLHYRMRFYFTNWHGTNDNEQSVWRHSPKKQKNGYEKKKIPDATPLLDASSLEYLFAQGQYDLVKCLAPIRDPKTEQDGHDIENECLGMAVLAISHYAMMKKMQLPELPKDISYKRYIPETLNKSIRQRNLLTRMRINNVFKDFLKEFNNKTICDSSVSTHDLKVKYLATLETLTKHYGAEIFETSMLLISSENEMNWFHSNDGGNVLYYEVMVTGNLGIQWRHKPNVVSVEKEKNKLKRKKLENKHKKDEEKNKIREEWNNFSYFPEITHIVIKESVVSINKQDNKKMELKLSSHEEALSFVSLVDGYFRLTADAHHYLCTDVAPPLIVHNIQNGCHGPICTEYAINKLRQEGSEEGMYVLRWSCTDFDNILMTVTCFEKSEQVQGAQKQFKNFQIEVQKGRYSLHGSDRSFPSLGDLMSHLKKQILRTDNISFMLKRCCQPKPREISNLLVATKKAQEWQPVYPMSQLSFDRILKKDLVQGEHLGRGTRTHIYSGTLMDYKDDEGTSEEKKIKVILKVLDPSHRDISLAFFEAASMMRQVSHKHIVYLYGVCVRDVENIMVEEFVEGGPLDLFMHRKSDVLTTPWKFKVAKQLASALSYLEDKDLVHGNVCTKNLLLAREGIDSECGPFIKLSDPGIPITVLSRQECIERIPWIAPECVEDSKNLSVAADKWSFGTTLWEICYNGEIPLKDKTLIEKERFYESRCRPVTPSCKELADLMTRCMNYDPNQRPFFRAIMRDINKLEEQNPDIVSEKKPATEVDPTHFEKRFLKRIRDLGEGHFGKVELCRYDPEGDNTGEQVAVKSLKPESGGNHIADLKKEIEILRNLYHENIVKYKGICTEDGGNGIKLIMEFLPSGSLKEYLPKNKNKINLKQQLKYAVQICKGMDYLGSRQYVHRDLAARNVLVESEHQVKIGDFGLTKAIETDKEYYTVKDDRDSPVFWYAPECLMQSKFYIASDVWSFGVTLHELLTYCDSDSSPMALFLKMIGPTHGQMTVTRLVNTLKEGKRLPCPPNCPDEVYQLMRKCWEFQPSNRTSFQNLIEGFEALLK

| SMILES | JAK 1 (pKi) (JAK1) | Tall-1 (pIC50) [1] | JAK 3 (pKi) (JAK3) | JAK3 (pKi)-JAK1 (pKi) (JAK3) | Ki (JAK1) | IC50 [1] | Ki (JAK3) |
| --- | --- | --- | --- | --- | --- | --- | --- |
| CN(C)CC=CC(=O)N1C2CCC1CC(Oc1cc(-c3ccc(O)c(Cl)c3)cc3[nH]ncc13)C2 (centres unmarked) [Compound 9-3] | E (a pKi value of 7 or below (Ki of 100 nM or above)) | C (a pIC50 value between 6 and 6.7 (IC50 between 1 μM and 200 nM)) | B (a pKi value between 9 and 10 (Ki between 1 nM and 0.1 nM)) | C (a value of 1.8 to 2.3) |  |  |  |
| CN(C)CC=CC(=O)N1C2CCC1CC(Oc1cc(-c3ccc(O)c(F)c3)cc3[nH]ncc13)C2 (centres unmarked) [Compound 9-5] | D (a pKi value between 7 and 8 (Ki between 100 nM and 10 nM)) | C (a pIC50 value between 6 and 6.7 (IC50 between 1 μM and 200 nM)) | B (a pKi value between 9 and 10 (Ki between 1 nM and 0.1 nM)) | C (a value of 1.8 to 2.3) |  |  |  |
| C=CC(=O)N1C2CCC1CC(Oc1nc(-c3ccc(O)cc3)cc3[nH]ncc13)C2 (centres unmarked) [Compound 9-6] | E (a pKi value of 7 or below (Ki of 100 nM or above)) | A (a pIC50 value≥7.5 (IC50≤32 nM)) | B (a pKi value between 9 and 10 (Ki between 1 nM and 0.1 nM)) | A (a value of 3 or above) |  |  |  |
| C=CC(=O)N1C2CCC1CC(Oc1nc(-c3ccc(O)c(Cl)c3)cc3[nH]ncc13)C2 (centres unmarked) [Compound 9-7] | E (a pKi value of 7 or below (Ki of 100 nM or above)) | B (a pIC50 value between 6.7 (included) and 7.5 (IC50 between 200 nM and 32 nM)) | A (a pKi value≥10 (Ki≤0.1 nM)) | A (a value of 3 or above) |  |  |  |
| CN(C)CC=CC(=O)N1C2CCC1CC(Oc1nc(-c3ccc(O)c(Cl)c3)cc3[nH]ncc13)C2 (centres unmarked) [Compound 9-8] | D (a pKi value between 7 and 8 (Ki between 100 nM and 10 nM)) | C (a pIC50 value between 6 and 6.7 (IC50 between 1 μM and 200 nM)) | B (a pKi value between 9 and 10 (Ki between 1 nM and 0.1 nM)) | C (a value of 1.8 to 2.3) |  |  |  |
| C=CC(=O)N1C2CCC1CC(Oc1nc(-c3ccc(O)c(F)c3)cc3[nH]ncc13)C2 (centres unmarked) [Compound 9-10] | E (a pKi value of 7 or below (Ki of 100 nM or above)) | A (a pIC50 value≥7.5 (IC50≤32 nM)) | B (a pKi value between 9 and 10 (Ki between 1 nM and 0.1 nM)) | A (a value of 3 or above) |  |  |  |
| C=CC(=O)N1C2CCC1CC(Oc1nc(-c3ccc(O)cc3)nc3[nH]ncc13)C2 (centres unmarked) [Compound 9-11] | E (a pKi value of 7 or below (Ki of 100 nM or above)) | B (a pIC50 value between 6.7 (included) and 7.5 (IC50 between 200 nM and 32 nM)) | A (a pKi value≥10 (Ki≤0.1 nM)) | A (a value of 3 or above) |  |  |  |
| CN(C)CC=CC(=O)N1C2CCC1CC(Oc1cc(-c3ccc(O)cc3)cc3[nH]ncc13)C2 (centres unmarked) [Compound 10-1] | D (a pKi value between 7 and 8 (Ki between 100 nM and 10 nM)) | B (a pIC50 value between 6.7 (included) and 7.5 (IC50 between 200 nM and 32 nM)) | A (a pKi value≥10 (Ki≤0.1 nM)) | B (a value of 2.3 to 3) |  |  |  |
| CN(C)CC=CC(=O)N1C2CCC1CC(Oc1cc(-c3ccc(O)c(Cl)c3)cc3[nH]ncc13)C2 (centres unmarked) [Compound 10-3] | D (a pKi value between 7 and 8 (Ki between 100 nM and 10 nM)) | B (a pIC50 value between 6.7 (included) and 7.5 (IC50 between 200 nM and 32 nM)) | B (a pKi value between 9 and 10 (Ki between 1 nM and 0.1 nM)) | B (a value of 2.3 to 3) |  |  |  |
| CN(C)CC=CC(=O)N1C2CCC1CC(Oc1cc(-c3ccc(O)c(F)c3)cc3[nH]ncc13)C2 (centres unmarked) [Compound 10-5] | D (a pKi value between 7 and 8 (Ki between 100 nM and 10 nM)) | B (a pIC50 value between 6.7 (included) and 7.5 (IC50 between 200 nM and 32 nM)) | B (a pKi value between 9 and 10 (Ki between 1 nM and 0.1 nM)) | C (a value of 1.8 to 2.3) |  |  |  |
| C=CC(=O)N1C2CCC1CC(Oc1cc(-c3ccc(O)c(F)c3)cc3[nH]ncc13)C2 (centres unmarked) [Compound 10-6] | D (a pKi value between 7 and 8 (Ki between 100 nM and 10 nM)) | A (a pIC50 value≥7.5 (IC50≤32 nM)) | B (a pKi value between 9 and 10 (Ki between 1 nM and 0.1 nM)) | B (a value of 2.3 to 3) |  |  |  |
| C=CC(=O)N1CCO[C@H](C(=O)Nc2cc(-c3ccc(O)cc3)cc3[nH]ncc23)C1 [Compound 11-1] | E (a pKi value of 7 or below (Ki of 100 nM or above)) | A (a pIC50 value≥7.5 (IC50≤32 nM)) | B (a pKi value between 9 and 10 (Ki between 1 nM and 0.1 nM)) | A (a value of 3 or above) |  |  |  |
| CN(C)C/C=C/C(=O)N1CCO[C@H](C(=O)Nc2cc(-c3ccc(O)cc3)cc3[nH]ncc23)C1 [Compound 11-2] | E (a pKi value of 7 or below (Ki of 100 nM or above)) | C (a pIC50 value between 6 and 6.7 (IC50 between 1 μM and 200 nM)) | B (a pKi value between 9 and 10 (Ki between 1 nM and 0.1 nM)) | A (a value of 3 or above) |  |  |  |
| C=CC(=O)N1CC[C@@H](Sc2cc(-c3ccc(O)cc3)cc3[nH]ncc23)C1 [Compound 12-2] | E (a pKi value of 7 or below (Ki of 100 nM or above)) | B (a pIC50 value between 6.7 (included) and 7.5 (IC50 between 200 nM and 32 nM)) | B (a pKi value between 9 and 10 (Ki between 1 nM and 0.1 nM)) | B (a value of 2.3 to 3) |  |  |  |
| CN(C)C/C=C/C(=O)N1CC[C@@H](Sc2cc(-c3ccc(O)cc3)cc3[nH]ncc23)C1 [Compound 12-3] |  |  |  | B (a value of 2.3 to 3) | 10 to 100 nM | 200 to 1000 nM | 0.1 to 1 nM |
| CN(C)C/C=C/C(=O)N1CCC(Sc2cc(-c3ccc(O)cc3)cc3[nH]ncc23)CC1 [Compound 12-5] |  |  |  | B (a value of 2.3 to 3) | > 100 nM | 31.6 to 200 nM | 0.1 to 1 nM |
| C=CC(=O)N1CCC[C@H](Sc2cc(-c3ccc(O)cc3)cc3[nH]ncc23)C1 [Compound 12-6] |  |  |  | B (a value of 2.3 to 3) | 10 to 100 nM | 31.6 to 200 nM | 0.1 to 1 nM |
| CN(C)C/C=C/C(=O)N1CCC[C@H](Sc2cc(-c3ccc(O)cc3)cc3[nH]ncc23)C1 [Compound 12-7] |  |  |  | C (a value of 1.8 to 2.3) | 10 to 100 nM | 200 to 1000 nM | 0.1 to 1 nM |
| C=CC(=O)N1CCC(S(=O)(=O)c2cc(-c3ccc(O)cc3)cc3[nH]ncc23)CC1 [Compound 12-8] |  |  |  | A (a value of 3 or above) | > 100 nM | 200 to 1000 nM | 0.1 to 1 nM |
| C=CC(=O)N1CCC[C@H](S(=O)(=O)c2cc(-c3ccc(O)cc3)cc3[nH]ncc23)C1 [Compound 12-9] |  |  |  | A (a value of 3 or above) | > 100 nM | 200 to 1000 nM | 0.1 to 1 nM |
| CN(C)C/C=C/C(=O)N1CCC(Cc2cc(-c3ccc(O)cc3)cc3[nH]ncc23)CC1 [Compound 12-14] |  |  |  | C (a value of 1.8 to 2.3) | > 100 nM | 200 to 1000 nM | 0.1 to 1 nM |
| C=CC(=O)N1CC[C@H](Nc2cc(-c3ccc(O)cc3)cc3[nH]ncc23)C[C@@H]1C [Compound 12-15] |  |  |  | B (a value of 2.3 to 3) | > 100 nM | 31.6 to 200 nM | 0.1 to 1 nM |
| C=CC(=O)N1CC[C@@H](Nc2cc(-c3ccc(O)cc3)cc3[nH]ncc23)C1 [Compound 12-18] |  |  |  | B (a value of 2.3 to 3) | 10 to 100 nM | 31.6 to 200 nM | < 0.1 nM |
